Measurements as given in EP1383793B1 (priority 2000, dated 2001).
pKd: −log10 of the molar value. Residues, ends and D or L forms follow the SMILES beside them. *: point of attachment. Biotin = O=C1N[C@H]2[C@H](CS[C@H]2CCCCC(=O)*)N1

Tests used:
[1] = target: human IGF-1 receptor (HIGF-1R) (Homo sapiens, UniProt P08069); assay: 125I-IGF-1 competition binding assay on solubilised purified receptor
[2] = target: T1, human insulin receptor (HIR) (Homo sapiens, UniProt P06213); assay: 125I-insulin competition binding assay on solubilised purified receptor; conditions: read-out: Kd (µM) HIR
T1 construct: made in house

Insulin receptor = target: T2, Insulin receptor (Homo sapiens, UniProt P06213); assay: BIAcore competition: IR pre-incubated with test substance, injected over immobilised insulin; assay type: binding; conditions: peptide about 40 µM, IR 450 nM
T2 construct: composed of the extracellular domains of both the α and β chains of the natural receptor; made in house; background b13 names human embryonic kidney 293 cells for the Bass et al. construct
Experimental: Flowcell-1 was used for background binding to correct for any non-specific binding. […] The surface was regenerated with 25 mM NaOH. […] Thus, the system was validated for competition studies. […] The amino acid sequences referred to in the tables are identified in Figures 47 and 48, except the 447 and 2A9 sequences, which are shown below. TABLE 9: BIAcore Results-Fusion Proteins Compete for Binding to IR

IR = target: T3, IR (Homo sapiens, UniProt P06213); assay: Phage ELISA, binding of phage-displayed peptides to IR; conditions: 405 nm
T3 construct: composed of the extracellular domains of both the α and β chains of the natural receptor; made in house; background b13 names human embryonic kidney 293 cells for the Bass et al. construct
Experimental: Amino acid sequences comprising the motif of Formulas 1 through 10. […] Fifty microliters of this solution was added to an appropriate number of wells in a 96-well microtiter plate (MaxiSorp plates, Nunc) and incubated overnight at 4°C. […] To isolate specific binders, each library was panned against a soluble form of the human IR. This IR is composed of the extracellular domains of both the α and β chains of the natural receptor, as well as the constant domain from immunoglobulin Fc, retaining the β-α-α-β structure described above. Because the IR is expressed in a eukaryotic system, disulfide bond formation and glycosylation patterns should mimic the wild-type receptor. The details of this recombinant protein construct are described in Bass et al. (1996). Phage ELISA. […] The wells were blocked with 200 µl of MPBS for 1.5 h at RT. […] Peptides were added as noted below and allowed to incubate at RT for 3 h. The plates were washed 3 times with PBST. A solution of 1:3000 diluted HRP:Anti-M13 conjugate at 100 µl per well of was added for 1 h. Following a repeat of the washing, 100 µl of ABTS was added for 15-30 min. […] Phage ELISA. […] Peptides were added as noted below and allowed to incubate at RT for 3 h. […] A solution of 1:3000 diluted HRP:Anti-M13 Conjugate at 100 µl per well of was added for 1 h. Following a repeat of the washing, 100 µl of ABTS was added for 15-30 min. The OD405 was measured using a SpectraMax 340 Microplate Spectrophotometer.

IGF-1R = target: T4, IGF-1R (Homo sapiens, UniProt P08069); assay: Phage ELISA, binding of phage-displayed peptides to IGF-1R; conditions: 405 nm
T4 construct: Soluble IGF-1R was obtained from R&D Systems; purchased R&D Systems 391-GR/CF
Experimental: Figures 1A-10G. Amino acid sequences comprising the motif of Formulas 1 through 10. […] One hundred microliters of this solution was added to an appropriate number of wells in a 96-well microtiter plate (MaxiSorp plates, Nunc) and incubated overnight at 4°C. […] Subsequent steps are the same for pooled and clonal phage. […] Phage resuspended in MPBS were added to duplicate wells (100 µl/well) and incubated at RT for 1 h. […] Incubation was for 1 h at RT, followed by PBS washes as described. […] Phage ELISA. […] The wells were blocked with 200 µl of MPBS for 1.5 h at RT. Phage were added at 100 µl per well. Peptides were added as noted below and allowed to incubate at RT for 3 h. The plates were washed 3 times with PBST. A solution of 1:3000 diluted HRP:Anti-M13 conjugate at 100 µl per well of was added for 1 h. Following a repeat of the washing, 100 µl of ABTS was added for 15-30 min. […] Phage ELISA. […] Phage were added at 100 µl per well. Peptides were added as noted below and allowed to incubate at RT for 3 h. The plates were washed 3X with PBST. A solution of 1:3000 diluted HRP:Anti-M13 Conjugate at 100 µl per well of was added for 1 h. Following a repeat of the washing, 100 µl of ABTS was added for 15-30 min. The OD405 was measured using a SpectraMax 340 Microplate Spectrophotometer.

adipocytes = assay: 3H-glucose uptake into adipocytes (fat cell assay, FFC); assay type: cell-based, Mouse; design: key to Resp.: -2 (antagonist); +2 (agonist); conditions: for Resp.: Subjective ranking, basal and sub maximal insulin, includes series A

| pKd [1] | Kd [2] | % Binding (Insulin receptor) | Absorbance Values IR (IR) | Absorbance Values sIGF-1R (IGF-1R) | Ratio ([1]; Kd HIGF1R / Kd HIR) | Compound | Comments (dose response, effect at basal insulin) (adipocytes) | ED50 (adipocytes; Estimated, not calculated values) | Resp. (adipocytes) |
| --- | --- | --- | --- | --- | --- | --- | --- | --- | --- |
| 4.89 | 4.5 µM | 38% | – | – | – | CC(C)C[C@H](NC(=O)CNC(=O)[C@H](CC(N)=O)NC(=O)[C@H](Cc1ccc(O)cc1)NC(=O)[C@H](Cc1ccccc1)NC(=O)[C@H](C)NC(=O)[C@H](CCCNC(=N)N)NC(=O)[C@H](CC(=O)O)NC(=O)[C@@H](N)CCCCN)C(=O)N[C@@H](CCCNC(=N)N)C(=O)N[C@@H](CC(=O)O)C(=O)N[C@@H](CC(C)C)C(=O)N[C@H](C(=O)NCC(=O)N[C@@H](C)C(=O)N[C@H](C(=O)N[C@@H](Cc1ccc(O)cc1)C(=O)NCC(=O)N[C@@H](C)C(=O)N[C@@H](Cc1c[nH]c2ccccc12)C(=O)N[C@@H](CC(=O)O)C(=O)N[C@@H](CCCCN)C(=O)N[C@@H](CCCCNC(=O)CCCC[C@@H]1SC[C@@H]2NC(=O)N[C@@H]21)C(N)=O)C(C)C)C(C)C [Clone 20C11] (H-KDRAFYNGLRDLVGAVYGAWDKK(Biotin)-NH2) | – | – | – |
| – | – | – | 1.30 | 2.55 | 20 | CSCC[C@H](NC(=O)[C@@H](NC(=O)[C@H](CO)NC(=O)[C@H](CC(C)C)NC(=O)[C@H](CC(C)C)NC(=O)[C@H](C)NC(=O)[C@H](CO)NC(=O)[C@H](Cc1c[nH]c2ccccc12)NC(=O)[C@@H](N)CCCCN)C(C)C)C(=O)N[C@@H](CC(=O)O)C(=O)N[C@H](C(=O)NCC(=O)N[C@@H](Cc1ccccc1)C(=O)N[C@@H](Cc1ccc(O)cc1)C(=O)N[C@@H](C)C(=O)N[C@@H](Cc1c[nH]c2ccccc12)C(=O)N[C@@H](Cc1ccccc1)C(=O)N[C@@H](CC(=O)O)C(=O)N[C@@H](CC(=O)O)C(=O)N[C@@H](C)C(=O)N[C@H](C(=O)N[C@@H](CCCCN)C(=O)N[C@@H](CCCCNC(=O)CCCC[C@@H]1SC[C@@H]2NC(=O)N[C@@H]21)C(N)=O)C(C)C)[C@@H](C)O [Clone B8] (H-KWSALLSVMDTGFYAWFDDAVKK(Biotin)-NH2; N-terminus assumed) | – | – | 0 |
| – | – | – | 1.43 | 2.08 | – | KSMFVAGSDRWPGYGVLADWLKK [Clone F2] | – | – | – |

| Compound | pKd [1] | Kd [2] | % Binding (Insulin receptor) | Absorbance Values IR (IR) | Absorbance Values sIGF-1R (IGF-1R) | Ratio ([1]; Kd HIGF1R / Kd HIR) | Comments (dose response, effect at basal insulin) (adipocytes) | ED50 (adipocytes; Estimated, not calculated values) | Resp. (adipocytes) |
| --- | --- | --- | --- | --- | --- | --- | --- | --- | --- |
| CC[C@H](C)[C@H](NC(=O)[C@H](C)NC(=O)[C@H](CC(=O)O)NC(=O)[C@H](Cc1ccc(O)cc1)NC(=O)[C@H](Cc1ccccc1)NC(=O)[C@H](CC(=O)O)NC(=O)[C@H](CCCCN)NC(=O)[C@H](Cc1ccc(O)cc1)NC(=O)[C@@H](N)CC(=O)O)C(=O)N[C@@H](CC(=O)O)C(=O)N[C@@H](CCC(N)=O)C(=O)N[C@@H](CC(C)C)C(=O)N[C@H](C(=O)N[C@@H](CCCNC(=N)N)C(=O)NCC(=O)N[C@@H](CO)C(=O)N[C@@H](C)C(=O)N[C@@H](CCCNC(=N)N)C(=O)N[C@@H](C)C(=O)NCC(=O)NCC(=O)N[C@H](C(=O)N[C@@H](CCCNC(=N)N)C(=O)N[C@@H](CC(=O)O)C(=O)N[C@@H](CCCCN)C(=O)N[C@@H](CCCCNC(=O)CCCC[C@@H]1SC[C@@H]2NC(=O)N[C@@H]21)C(N)=O)[C@@H](C)O)C(C)C [Clone 20E2] (H-DYKDFYDAIDQLVRGSARAGGTRDKK(Biotin)-NH2; N-terminus assumed) | – | – | – | 1.01 | 2.15 | – | Biphasic dose response curve (needs repeating) | Approx 20 µM | +2 |
